Laboratory results taken from PMC7658267, “Effects of CYP46A1 Inhibition on Long-Term-Depression in Hippocampal Slices ex vivo and 24S-Hydroxycholesterol Levels in Mice in vivo” (Frontiers in Molecular Neuroscience, 2020).

Tests used:
Design in all cases: CEREP off-target binding panel, per cent inhibition at 10 uM, n = 2
Human 5-HT1A = biological target: T1, Human 5-HT1A (Homo sapiens, UniProt P08908); assay: biochemical
T1 construct: gene HTR1A

Human 5-HT1B = biological target: T2, Human 5-HT1B (Homo sapiens, UniProt P28222); assay: biochemical
T2 construct: gene HTR1B

Human 5-HT2B = biological target: T3, Human 5-HT2B (Homo sapiens, UniProt P41595); assay: biochemical
T3 construct: gene HTR2B
T3 sequence (P41595 whole entry): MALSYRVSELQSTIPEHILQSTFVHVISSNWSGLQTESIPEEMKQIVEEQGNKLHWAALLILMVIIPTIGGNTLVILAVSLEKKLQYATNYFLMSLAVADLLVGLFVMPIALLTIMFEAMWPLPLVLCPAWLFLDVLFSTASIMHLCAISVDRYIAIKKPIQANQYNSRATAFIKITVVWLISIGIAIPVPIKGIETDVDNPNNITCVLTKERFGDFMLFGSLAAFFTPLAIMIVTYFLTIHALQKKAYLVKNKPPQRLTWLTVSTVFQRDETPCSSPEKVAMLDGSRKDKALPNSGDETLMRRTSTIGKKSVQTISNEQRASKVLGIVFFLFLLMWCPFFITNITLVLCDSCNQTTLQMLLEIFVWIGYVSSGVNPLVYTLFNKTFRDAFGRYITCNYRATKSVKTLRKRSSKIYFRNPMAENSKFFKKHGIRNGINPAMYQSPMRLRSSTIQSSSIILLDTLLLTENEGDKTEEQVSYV

Human 5-HT3 = biological target: T4, Human 5-HT3 (Homo sapiens, UniProt P46098); assay: biochemical
T4 construct: gene HTR3A

Human A1 = biological target: T5, Human A1 (Homo sapiens, UniProt P30542); assay: biochemical
T5 construct: gene ADORA1
T5 sequence (P30542 whole entry): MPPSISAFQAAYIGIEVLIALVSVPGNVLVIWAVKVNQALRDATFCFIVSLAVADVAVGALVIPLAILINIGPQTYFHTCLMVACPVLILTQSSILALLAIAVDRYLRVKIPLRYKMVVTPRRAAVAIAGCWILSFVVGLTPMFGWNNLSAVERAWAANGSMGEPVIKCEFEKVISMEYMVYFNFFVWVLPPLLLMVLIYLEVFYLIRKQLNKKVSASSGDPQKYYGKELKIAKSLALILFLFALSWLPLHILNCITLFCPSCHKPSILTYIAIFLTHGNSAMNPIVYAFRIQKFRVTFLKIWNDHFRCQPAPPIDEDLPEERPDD

Human A2A = biological target: T6, Human A2A (Homo sapiens, UniProt P29274); assay: biochemical
T6 construct: gene ADORA2A

Human AR = Human AR (Homo sapiens, UniProt P10275); assay: biochemical
Human AT1 = biological target: T7, Human AT1 (Homo sapiens, UniProt P30556); assay: biochemical
T7 construct: gene AGTR1
T7 sequence (P30556 whole entry): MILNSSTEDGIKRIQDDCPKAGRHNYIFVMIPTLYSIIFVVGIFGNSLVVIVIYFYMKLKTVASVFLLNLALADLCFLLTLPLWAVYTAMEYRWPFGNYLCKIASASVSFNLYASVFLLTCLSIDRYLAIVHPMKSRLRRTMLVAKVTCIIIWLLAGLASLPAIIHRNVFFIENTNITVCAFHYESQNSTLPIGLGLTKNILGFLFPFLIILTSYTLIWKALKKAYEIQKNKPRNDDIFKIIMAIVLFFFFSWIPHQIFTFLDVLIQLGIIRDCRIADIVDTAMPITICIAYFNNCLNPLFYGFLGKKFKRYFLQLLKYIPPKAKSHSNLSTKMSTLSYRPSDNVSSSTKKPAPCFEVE

Human CCR1 = Human CCR1 (Homo sapiens, UniProt P32246); assay: biochemical
Human CXCR2 = Human CXCR2 (Homo sapiens, UniProt P25025); assay: biochemical
Sequence of Human CXCR2 (P25025 whole entry): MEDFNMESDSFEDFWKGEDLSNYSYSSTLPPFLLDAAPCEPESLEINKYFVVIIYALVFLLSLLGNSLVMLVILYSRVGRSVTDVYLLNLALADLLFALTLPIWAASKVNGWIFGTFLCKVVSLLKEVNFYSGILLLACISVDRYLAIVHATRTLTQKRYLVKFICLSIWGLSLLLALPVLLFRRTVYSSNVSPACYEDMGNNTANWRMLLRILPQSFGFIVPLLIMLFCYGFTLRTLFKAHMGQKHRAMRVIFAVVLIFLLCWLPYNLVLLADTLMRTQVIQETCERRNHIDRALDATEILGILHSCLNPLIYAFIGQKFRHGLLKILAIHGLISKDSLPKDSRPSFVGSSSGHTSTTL

Human D1 = biological target: T8, Human D1 (Homo sapiens, UniProt P21728); assay: biochemical
T8 construct: gene DRD1

Human DOP = biological target: T9, Human DOP (Homo sapiens, UniProt P41143); assay: biochemical
T9 construct: gene OPRD1

Human H1 = biological target: T10, Human H1 (Homo sapiens, UniProt P35367); assay: biochemical
T10 construct: gene HRH1

Human H2 = biological target: T11, Human H2 (Homo sapiens, UniProt P25021); assay: biochemical
T11 construct: gene HRH2
T11 sequence (P25021 whole entry): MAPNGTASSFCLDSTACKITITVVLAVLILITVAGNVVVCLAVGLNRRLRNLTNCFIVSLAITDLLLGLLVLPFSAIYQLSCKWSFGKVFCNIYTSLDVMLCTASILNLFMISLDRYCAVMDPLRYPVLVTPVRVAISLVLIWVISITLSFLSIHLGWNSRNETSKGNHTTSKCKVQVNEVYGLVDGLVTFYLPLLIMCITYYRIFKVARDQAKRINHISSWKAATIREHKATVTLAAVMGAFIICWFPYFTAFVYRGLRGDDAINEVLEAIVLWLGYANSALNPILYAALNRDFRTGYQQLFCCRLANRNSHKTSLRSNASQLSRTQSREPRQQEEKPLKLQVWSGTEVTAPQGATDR

Human KOP = biological target: T12, Human KOP (Homo sapiens, UniProt P41145); assay: biochemical
T12 construct: gene OPRK1

Human M1 = biological target: T13, Human M1 (Homo sapiens, UniProt P11229); assay: biochemical
T13 construct: gene CHRM1
T13 sequence (P11229 whole entry): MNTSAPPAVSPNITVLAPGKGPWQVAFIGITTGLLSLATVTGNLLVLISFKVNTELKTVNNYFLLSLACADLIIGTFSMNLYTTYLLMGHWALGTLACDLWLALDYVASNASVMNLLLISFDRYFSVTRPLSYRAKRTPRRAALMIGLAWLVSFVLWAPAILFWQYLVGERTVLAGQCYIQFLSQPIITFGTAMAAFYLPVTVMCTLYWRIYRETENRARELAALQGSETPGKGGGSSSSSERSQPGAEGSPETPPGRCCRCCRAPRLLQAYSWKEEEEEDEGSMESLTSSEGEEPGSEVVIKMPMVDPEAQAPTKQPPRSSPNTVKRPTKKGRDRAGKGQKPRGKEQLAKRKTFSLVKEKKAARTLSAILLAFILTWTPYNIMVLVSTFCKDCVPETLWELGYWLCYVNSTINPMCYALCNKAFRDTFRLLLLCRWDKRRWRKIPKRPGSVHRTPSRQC

Human M3 = biological target: T14, Human M3 (Homo sapiens, UniProt P20309); assay: biochemical
T14 construct: gene CHRM3

Human MOP = biological target: T15, Human MOP (Homo sapiens, UniProt P35372); assay: biochemical
T15 construct: gene OPRM1

Human NK2 = biological target: T16, Human NK2 (Homo sapiens, UniProt P21452); assay: biochemical
T16 construct: gene TACR2
T16 sequence (P21452 whole entry): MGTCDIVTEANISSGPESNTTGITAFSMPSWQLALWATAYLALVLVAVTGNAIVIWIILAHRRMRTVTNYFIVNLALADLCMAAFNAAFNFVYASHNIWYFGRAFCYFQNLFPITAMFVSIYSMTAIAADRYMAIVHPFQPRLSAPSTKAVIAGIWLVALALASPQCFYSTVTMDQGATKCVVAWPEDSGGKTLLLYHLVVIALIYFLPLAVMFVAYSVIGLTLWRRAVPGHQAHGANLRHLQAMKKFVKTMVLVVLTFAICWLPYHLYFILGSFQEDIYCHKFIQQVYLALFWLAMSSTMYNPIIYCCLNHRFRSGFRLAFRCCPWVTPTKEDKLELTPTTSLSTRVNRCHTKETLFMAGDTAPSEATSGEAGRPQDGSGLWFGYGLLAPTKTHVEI

Human NK3 = biological target: T17, Human NK3 (Homo sapiens, UniProt P29371); assay: biochemical
T17 construct: gene TACR3
T17 sequence (P29371 whole entry): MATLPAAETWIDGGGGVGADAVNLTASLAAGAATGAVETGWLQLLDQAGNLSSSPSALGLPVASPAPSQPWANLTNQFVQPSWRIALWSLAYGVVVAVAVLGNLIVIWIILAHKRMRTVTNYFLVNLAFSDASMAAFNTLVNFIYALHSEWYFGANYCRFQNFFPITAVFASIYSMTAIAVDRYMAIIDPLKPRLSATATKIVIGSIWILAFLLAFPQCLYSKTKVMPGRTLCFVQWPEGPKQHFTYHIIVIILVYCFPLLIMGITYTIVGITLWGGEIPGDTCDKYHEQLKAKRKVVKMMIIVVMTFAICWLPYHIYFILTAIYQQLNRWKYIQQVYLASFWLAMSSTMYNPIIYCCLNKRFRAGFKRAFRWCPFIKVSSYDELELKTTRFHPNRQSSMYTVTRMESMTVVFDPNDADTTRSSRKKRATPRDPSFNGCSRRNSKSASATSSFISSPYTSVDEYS

Human NOP = biological target: T18, Human NOP (Homo sapiens, UniProt P41146); assay: biochemical
T18 construct: gene OPRL1

Human NTS1 = biological target: T19, Human NTS1 (Homo sapiens, UniProt P30989); assay: biochemical
T19 construct: gene NTSR1
T19 sequence (P30989 whole entry): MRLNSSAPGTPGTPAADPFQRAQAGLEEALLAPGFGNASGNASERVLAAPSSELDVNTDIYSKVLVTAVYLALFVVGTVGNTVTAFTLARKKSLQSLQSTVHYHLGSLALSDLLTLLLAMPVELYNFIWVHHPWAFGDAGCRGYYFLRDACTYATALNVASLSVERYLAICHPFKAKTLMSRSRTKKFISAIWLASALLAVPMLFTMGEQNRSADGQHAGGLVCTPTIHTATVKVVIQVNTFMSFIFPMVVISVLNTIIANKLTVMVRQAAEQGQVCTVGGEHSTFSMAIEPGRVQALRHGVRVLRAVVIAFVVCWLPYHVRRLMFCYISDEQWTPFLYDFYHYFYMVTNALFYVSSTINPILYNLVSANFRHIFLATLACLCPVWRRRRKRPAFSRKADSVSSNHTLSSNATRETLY

Human PXR = biological target: T20, Human PXR (Homo sapiens, UniProt O75469); assay: in vitro
T20 construct: gene NR1I2

Human Y2 = biological target: T21, Human Y2 (Homo sapiens, UniProt P49146); assay: biochemical
T21 construct: gene NPY2R

Human 5-HT transporter = biological target: T22, Human 5-HT transporter (Homo sapiens, UniProt P31645); assay: biochemical
T22 construct: gene SLC6A4
T22 sequence (P31645 whole entry): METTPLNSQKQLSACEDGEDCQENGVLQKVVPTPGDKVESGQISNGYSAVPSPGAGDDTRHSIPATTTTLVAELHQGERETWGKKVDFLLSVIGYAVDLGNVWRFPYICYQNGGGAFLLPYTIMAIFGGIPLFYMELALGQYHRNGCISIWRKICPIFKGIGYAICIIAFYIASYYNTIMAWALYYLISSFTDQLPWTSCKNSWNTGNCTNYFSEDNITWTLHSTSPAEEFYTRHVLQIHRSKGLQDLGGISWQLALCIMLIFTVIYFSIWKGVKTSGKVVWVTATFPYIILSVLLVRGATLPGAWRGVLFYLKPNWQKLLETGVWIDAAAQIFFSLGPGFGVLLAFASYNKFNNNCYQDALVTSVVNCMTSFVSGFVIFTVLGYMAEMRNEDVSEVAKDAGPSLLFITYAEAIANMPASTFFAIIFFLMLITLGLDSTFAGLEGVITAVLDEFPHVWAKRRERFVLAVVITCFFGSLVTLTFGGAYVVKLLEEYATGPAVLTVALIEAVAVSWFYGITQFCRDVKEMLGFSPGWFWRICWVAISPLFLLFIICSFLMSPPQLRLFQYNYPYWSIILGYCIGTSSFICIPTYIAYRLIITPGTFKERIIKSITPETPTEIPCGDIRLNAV

[1] = biological target: T23, Human norepinephrine transporter (Homo sapiens, UniProt P23975); assay: biochemical
T23 construct: gene SLC6A2
T23 sequence (P23975 whole entry): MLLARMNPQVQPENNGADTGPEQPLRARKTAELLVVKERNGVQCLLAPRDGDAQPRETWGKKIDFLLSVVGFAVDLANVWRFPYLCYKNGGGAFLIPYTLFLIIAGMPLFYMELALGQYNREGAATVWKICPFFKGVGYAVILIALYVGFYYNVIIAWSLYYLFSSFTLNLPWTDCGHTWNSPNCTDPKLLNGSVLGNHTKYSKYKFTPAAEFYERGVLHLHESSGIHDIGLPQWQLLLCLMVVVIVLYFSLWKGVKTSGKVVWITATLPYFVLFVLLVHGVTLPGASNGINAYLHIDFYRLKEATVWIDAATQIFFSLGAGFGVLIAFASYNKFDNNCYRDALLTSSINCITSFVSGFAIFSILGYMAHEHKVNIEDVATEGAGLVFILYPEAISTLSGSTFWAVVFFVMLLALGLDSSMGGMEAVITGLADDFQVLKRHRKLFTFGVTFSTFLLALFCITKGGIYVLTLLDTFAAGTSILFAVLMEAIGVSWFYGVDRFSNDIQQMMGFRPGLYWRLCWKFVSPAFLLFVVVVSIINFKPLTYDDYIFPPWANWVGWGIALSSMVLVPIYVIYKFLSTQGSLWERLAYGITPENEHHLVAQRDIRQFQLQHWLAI

O=C(c1cnc2c(-c3cnco3)cc(C(F)(F)F)cn12)N1C2CCC1COC2 [compound 1, (3-oxa-8-azabicyclo[3.2.1]octan-8-yl)(8-(oxazol-5-yl)-6-(trifluoromethyl)imidazo[1,2-a]pyridin-3-yl)methanone]
inhibition at 10 µM (Human 5-HT1A): 12.4%
inhibition at 10 µM (Human 5-HT1B): -8.4%
inhibition at 10 µM (Human 5-HT2B): -2.8%
inhibition at 10 µM (Human 5-HT3): 11%
inhibition at 10 µM (Human A1): 32%
inhibition at 10 µM (Human A2A): 1.1%
inhibition at 10 µM (Human AR): -2%
inhibition at 10 µM (Human AT1): -3.7%
inhibition at 10 µM (Human CCR1): 2.6%
inhibition at 10 µM (Human CXCR2): -11.3%
inhibition at 10 µM (Human D1): 2.4%
inhibition at 10 µM (Human DOP): -6.2%
inhibition at 10 µM (Human H1): -12.9%
inhibition at 10 µM (Human H2): -6.2%
inhibition at 10 µM (Human KOP): 8%
inhibition at 10 µM (Human M1): 3.3%
inhibition at 10 µM (Human M3): -9.1%
inhibition at 10 µM (Human MOP): -0.7%
inhibition at 10 µM (Human NK2): -7.9%
inhibition at 10 µM (Human NK3): 4.1%
inhibition at 10 µM (Human NOP): 1.4%
inhibition at 10 µM (Human NTS1): -9.7%
inhibition at 10 µM (Human PXR): 4.8%
inhibition at 10 µM (Human Y2): -3.7%
inhibition at 10 µM (Human 5-HT transporter): 1.2%
inhibition at 10 µM [1]: -14.5%

O=C(c1cccnc1-c1ccncn1)N1CCC(O)(Cc2ccc(F)cc2)CC1 [compound 2, (4-(4-fluorobenzyl)-4-hydroxypiperidin-1-yl)(2-(pyrimidin-4-yl)pyridin-3-yl)methanone]
inhibition at 10 µM (Human 5-HT1A): 10.8%
inhibition at 10 µM (Human 5-HT1B): -13.3%
inhibition at 10 µM (Human 5-HT2B): -2.4%
inhibition at 10 µM (Human 5-HT3): 0.8%
inhibition at 10 µM (Human A1): 12.2%
inhibition at 10 µM (Human A2A): -2.6%
inhibition at 10 µM (Human AR): 3.1%
inhibition at 10 µM (Human AT1): -3.2%
inhibition at 10 µM (Human CCR1): -1.7%
inhibition at 10 µM (Human CXCR2): -1.5%
inhibition at 10 µM (Human D1): -5.3%
inhibition at 10 µM (Human DOP): -5.8%
inhibition at 10 µM (Human H1): -13.3%
inhibition at 10 µM (Human H2): -5.4%
inhibition at 10 µM (Human KOP): -5.2%
inhibition at 10 µM (Human M1): -8.6%
inhibition at 10 µM (Human M3): 7.3%
inhibition at 10 µM (Human MOP): 2.5%
inhibition at 10 µM (Human NK2): -1.4%
inhibition at 10 µM (Human NK3): 1.1%
inhibition at 10 µM (Human NOP): 0.6%
inhibition at 10 µM (Human NTS1): -12.2%
inhibition at 10 µM (Human PXR): 8.8%
inhibition at 10 µM (Human Y2): 6.8%
inhibition at 10 µM (Human 5-HT transporter): 0.1%
inhibition at 10 µM [1]: -3.6%
